Several values for one entry are separate records, joined by “and”; a condition that tells them apart may be missing. Equal values may be shown once. Read-outs that look alike come from different tables or passages of the source.
Key:
[1] = molecular target: T1, human 5α-reductase isozyme type 1 (Homo sapiens, UniProt P18405); experiment: 4-[14C]testosterone reduction, human type 1 isozyme; format: biochemical; settings: read-out: % Inhibition of 5α-reduction
T1 construct: expressed in transfected cells; host or cells: Rat-1A cells infected with pMV7 retrovirus; microsomes of these cells
T1 sequence (P18405 1-259): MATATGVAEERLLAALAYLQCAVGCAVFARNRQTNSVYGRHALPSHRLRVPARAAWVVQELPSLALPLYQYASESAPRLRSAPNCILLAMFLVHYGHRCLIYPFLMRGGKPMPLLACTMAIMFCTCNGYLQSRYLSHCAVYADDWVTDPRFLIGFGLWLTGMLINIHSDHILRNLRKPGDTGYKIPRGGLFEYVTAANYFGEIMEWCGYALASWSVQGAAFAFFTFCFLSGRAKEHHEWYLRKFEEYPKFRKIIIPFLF
From the text: (§1) The cDNAs for the human type 1 and 2 5α-reductases were isolated from human prostate λZAP II™ cDNA libraries using the published sequence of the 5α-reductases, PCR™ and standard library screening techniques (Sambrook et al., 1989). The type 1 and 2 cDNAs correspond to nucleotides 31-870 and 28-829, respectively, of the published sequences for these 5α-reductases (Anderson and Russell, 1990; Anderson et al., 1991). The type 1 and 2 cDNAs were subcloned into the retroviral expression vector pMV7 (Kirschmeier et al., 1988) and high titer stocks of virus containing the type 1 and 2 cDNAs were generated using the packaging cells BOSC 23 293 (Kirschmeier et al., 1988). Rat.-1A cells (Pear et al., 1993) were infected with virus (Topp, 1981) and cells containing integrated retrovirus were selected for G418-SO4 resistance, (Brown and Scott, 1987).
(§2) Microsomes were prepared as described previously (Liang and Liao, 1992) from the liver of adult Sprague-Dawley female rats or Rat-1A cells expressing a specific type of human 5α-reductase. […] The data presented was based on the rate of reaction.
(§3) The reaction was started by the addition of 25 μl of microsomes (25 μg protein). The mixture was incubated at 37° for 30-60 min and stopped by addition of 0.5 ml of ethyl acetate and mixing for 1 min. The organic solvent extract was removed under vacuum.

type 1 5α-reductase = format: biochemical
Experimental: (§4) [^3 H]4-MA binding assay were described in detail previously (Liang and Liao, 1992; Liang et al., 1983). […] The reaction was started by the addition of 25 μl of microsomes (25 μg protein). After 30-60 min incubation at 0° C., the [^3 H]4-MA bound to microsomes was collected on a Whatman GF/F glass fiber, washed and radioactivity determined (Liang and Liao, 1992).
as §3

[2] = system: prostate and preputial organ; experiment: Catechins ip 7 days, large rats; format: in vivo, rat
Experimental: Male Sprague Dawley rats, 172±20 g body weight, were used. Each group had 5 rats. […] The control rats received 0.3 ml of 30% ethanol.

[3] = molecular target: T1, human 5α-reductase isozyme type 1; experiment: [3H]4-MA binding, human type 1 isozyme expressed in Rat-1A cells; settings: read-out: % Inhibition of [^3 H]4-MA binding
From the text: as §1, §2, §4

[4] = molecular target: T2, rat small intestinal sucrase (Rattus norvegicus, UniProt P23739); settings: cited from earlier work
T2 construct: rat small intestinal sucrase and maltase; host or cells: rat small intestine
T2 sequence (P23739 1014-1841 limits assumed): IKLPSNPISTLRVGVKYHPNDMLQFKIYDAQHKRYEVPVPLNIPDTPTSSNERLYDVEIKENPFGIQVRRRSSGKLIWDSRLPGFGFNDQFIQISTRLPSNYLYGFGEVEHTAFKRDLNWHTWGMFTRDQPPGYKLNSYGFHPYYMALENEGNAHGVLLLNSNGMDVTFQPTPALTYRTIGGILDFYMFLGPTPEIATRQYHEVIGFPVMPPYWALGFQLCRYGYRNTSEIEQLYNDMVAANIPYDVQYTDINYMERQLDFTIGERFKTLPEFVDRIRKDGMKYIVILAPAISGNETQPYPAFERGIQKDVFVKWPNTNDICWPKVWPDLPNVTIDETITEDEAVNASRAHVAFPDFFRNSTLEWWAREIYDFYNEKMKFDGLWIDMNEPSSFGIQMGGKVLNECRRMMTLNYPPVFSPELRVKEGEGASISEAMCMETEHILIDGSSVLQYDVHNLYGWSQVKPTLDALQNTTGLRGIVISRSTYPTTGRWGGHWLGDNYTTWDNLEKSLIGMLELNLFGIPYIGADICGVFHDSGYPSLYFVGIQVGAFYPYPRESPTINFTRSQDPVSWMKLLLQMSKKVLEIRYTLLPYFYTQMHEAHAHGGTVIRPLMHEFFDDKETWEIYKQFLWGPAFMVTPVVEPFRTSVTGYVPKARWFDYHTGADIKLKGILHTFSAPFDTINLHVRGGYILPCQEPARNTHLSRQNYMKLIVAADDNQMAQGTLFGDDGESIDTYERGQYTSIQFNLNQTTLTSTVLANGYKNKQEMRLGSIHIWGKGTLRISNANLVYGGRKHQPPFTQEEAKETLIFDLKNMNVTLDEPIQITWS
T2 sequence (P23739 2-1013 partner limits assumed): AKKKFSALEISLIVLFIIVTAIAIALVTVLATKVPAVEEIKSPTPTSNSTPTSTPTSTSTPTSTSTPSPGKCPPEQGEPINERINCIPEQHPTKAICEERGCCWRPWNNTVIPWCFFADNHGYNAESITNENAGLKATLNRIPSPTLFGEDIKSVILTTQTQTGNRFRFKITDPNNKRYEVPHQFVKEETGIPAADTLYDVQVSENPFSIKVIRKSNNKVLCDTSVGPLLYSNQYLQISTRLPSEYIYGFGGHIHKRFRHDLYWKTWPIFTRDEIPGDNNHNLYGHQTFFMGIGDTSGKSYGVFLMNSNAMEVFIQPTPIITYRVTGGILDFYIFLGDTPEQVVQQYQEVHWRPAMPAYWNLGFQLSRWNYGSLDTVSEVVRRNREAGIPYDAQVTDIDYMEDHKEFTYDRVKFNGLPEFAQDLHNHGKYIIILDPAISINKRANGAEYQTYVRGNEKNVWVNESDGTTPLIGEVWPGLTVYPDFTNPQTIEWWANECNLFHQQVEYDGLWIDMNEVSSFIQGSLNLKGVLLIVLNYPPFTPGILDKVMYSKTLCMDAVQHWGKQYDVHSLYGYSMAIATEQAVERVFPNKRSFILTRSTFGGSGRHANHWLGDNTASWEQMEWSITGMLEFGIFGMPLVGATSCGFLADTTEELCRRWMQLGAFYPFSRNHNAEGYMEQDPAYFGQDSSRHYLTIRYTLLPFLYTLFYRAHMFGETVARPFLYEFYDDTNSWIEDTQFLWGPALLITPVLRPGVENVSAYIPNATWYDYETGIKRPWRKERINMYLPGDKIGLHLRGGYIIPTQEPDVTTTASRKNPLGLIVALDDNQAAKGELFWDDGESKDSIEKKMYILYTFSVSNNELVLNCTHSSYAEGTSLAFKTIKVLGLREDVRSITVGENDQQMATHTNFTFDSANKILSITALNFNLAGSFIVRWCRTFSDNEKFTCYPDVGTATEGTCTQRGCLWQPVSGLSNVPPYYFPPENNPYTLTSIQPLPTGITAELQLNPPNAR

[5] = molecular target: T3, human 5α-reductase isozyme type 2 (Homo sapiens, UniProt P31213); experiment: [3H]4-MA binding, human type 2 isozyme expressed in Rat-1A cells; settings: read-out: % Inhibition of [^3 H]4-MA binding
T3 construct: expressed in transfected cells; host or cells: Rat-1A cells infected with pMV7 retrovirus; microsomes of these cells
T3 sequence (P31213 1-254): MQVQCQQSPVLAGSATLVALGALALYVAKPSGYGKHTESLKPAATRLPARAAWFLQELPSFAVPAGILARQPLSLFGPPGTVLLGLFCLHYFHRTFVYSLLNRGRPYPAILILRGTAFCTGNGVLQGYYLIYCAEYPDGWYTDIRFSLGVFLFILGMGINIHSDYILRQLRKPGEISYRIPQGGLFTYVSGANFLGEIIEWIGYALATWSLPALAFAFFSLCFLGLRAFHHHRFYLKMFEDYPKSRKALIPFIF
From the text: as §1, §2, §4

[6] = system: human prostate cancer (PC3 and LNCaP) cells; experiment: 5α-reduction of testosterone by human prostate cancer cells; format: cell-based
[7] = system: ventral prostate and preputial organ
From the text: Male Sprague-Dawley rats, 60±5 g body weight, were used. Each group had 6 rats, and all were castrated.

[8] = molecular target: T3, human 5α-reductase isozyme type 2; experiment: 4-[14C]testosterone reduction, human type 2 isozyme; format: biochemical; settings: for inhibition at 1 µM / inhibition at 3 µM / inhibition at 10 µM / inhibition at 30 µM / inhibition at 100 µM: read-out: % Inhibition of 5α-reduction
From the text: as §1, §2, §3

[9] = system: human liver microsomes 5α-reductase; settings: vs rat liver microsomes
Experimental: (§5) Briefly, the binding assay solution, in a final volume of 0.15 ml, contained microsomes (2-20 μg of protein), 0.08 μCi of [^3 H]4-MA, 0.1 mM-NADPH, 1 mM-dithiothreitol and 50 mM-potassium phosphate, pH 7.0, with or without the indicated amount of a lipid or an inhibitor preparation. Lipids were dissolved in ethanol and added in 1-5 μl volumes. Control tubes received the same amount of ethanol. After incubation at 0° C. for 1 h, the [^3 H]4-MA bound to microsomes was determined by collecting microsomes on a Whatman GF/1F glass fibre filter and washing with 10 ml of 20 mM-potassium phosphate, pH 7.0, containing 0.01% CHAPS to remove unbound [^3 H]4-MA.
(§6) Microsomes were prepared at 4° C. from a buffered 0.32M-sucrose homogenate of human liver and from the livers of adult Sprague-Dawley female rats by differential centrifugation as described previously (Liang et al., 1990), and were used in the assay of 5α-reductase activity. In some experiments, microsomes were solubilized with 0.1% polyoxyethylene ether W-1 as described previously (Liang et al., 1990), except for the substitution of polyoxyethylene ether W-1 for Lubrol-WX.

microsomal 5α-reductase = molecular target: T4, microsomal 5α-reductase (Rattus norvegicus, UniProt P24008); experiment: Enzymatic assay of microsomal 5α-reductase (testosterone to 5α-DHT); format: biochemical
T4 construct: from the livers of adult Sprague-Dawley female rats; from tissue; host or cells: liver microsomes of adult female Sprague-Dawley rats
T4 sequence (P24008 1-259): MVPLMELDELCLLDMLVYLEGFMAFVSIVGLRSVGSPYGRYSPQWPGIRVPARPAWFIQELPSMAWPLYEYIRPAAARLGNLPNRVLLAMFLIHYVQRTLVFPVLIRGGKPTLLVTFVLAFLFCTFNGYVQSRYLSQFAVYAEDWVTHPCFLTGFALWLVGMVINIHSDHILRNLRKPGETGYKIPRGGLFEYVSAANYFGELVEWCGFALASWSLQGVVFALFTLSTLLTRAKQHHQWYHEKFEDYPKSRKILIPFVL
Experimental: as §6

[10] = molecular target: T5, 5α-Reductase of Rat Liver Microsomes (Rattus norvegicus, UniProt P24008)
T5 sequence (P24008 1-259): T4 sequence (P24008 1-259)
Experimental: as §5, §6

SMILES | inhibition at 1 µM [1] | inhibition at 3 µM [1] | inhibition at 10 µM [1] | inhibition at 30 µM [1] | inhibition at 1 µM [3] | inhibition at 3 µM [3] | inhibition at 10 µM [3] | inhibition at 30 µM [3] | inhibition at 100 µM [3] | inhibition at 1 µM [5] | inhibition at 3 µM [5] | inhibition at 10 µM [5] | inhibition at 30 µM [5] | inhibition at 100 µM [5] | 5α-DHT production by human prostate cancer cells [6] | reduction of weights of ventral prostate and preputial organ ([7]; 5 mg ip daily, 14 days) | general health / organ appearance ([7]; rat, in vivo) | inhibition at 1 µM [8] | inhibition at 3 µM [8] | inhibition at 10 µM [8] | further results
O=C(O[C@@H]1Cc2c(O)cc(O)cc2O[C@@H]1c1cc(O)c(O)c(O)c1)c1cc(O)c(O)c(O)c1 [EGCG, (-)Epigallocatechin-3-gallate] | 22% | 23% | 34% | 89% | 29% | 47% | 77% | 88% | 86% | < 10% | 12% | 55% | 72% | 89% | reduced 5α-DHT production | 10 to 35% | appeared to be as healthy as rats in other groups | < 10% | < 10% | < 10% | inhibition at 100 µM [1]: 98%; competition with testosterone or NADPH (type 1 5α-reductase): did not appear to compete with testosterone or NADPH; body weight decrease ([2]; 15 mg ip/day, 7 days): about 15%; coagulating gland weight ([2]; 15 mg ip/day, 7 days): 34 % of organ weight in normal rats; dorsolateral prostate weight ([2]; 15 mg ip/day, 7 days): 46 % of organ weight in normal rats; kidney weight ([2]; 15 mg ip/day, 7 days): 74 % of organ weight in normal rats; preputial gland weight ([2]; 15 mg ip/day, 7 days): 35 % of organ weight in normal rats; seminal vesicle weight ([2]; 15 mg ip/day, 7 days): 41 % of organ weight in normal rats; testis weight ([2]; 15 mg ip/day, 7 days): 84 % of organ weight in normal rats; ventral prostate weight ([2]; 15 mg ip/day, 7 days): 46 % of organ weight in normal rats; final body weight ([2]; 15 mg ip/day, 7 days, normal 232±10 g): 147 ± 14 g; final body weight reduction vs normal rats ([2]; end of study): about 36%; IC50 [4]: 50 to 500 µM; reduction of body weight increase ([7]; 5 mg ip daily, 14 days): about 35%; fat content under the skin ([7]; rat, in vivo): appeared less; activity on type 2 isozyme ([8]; enzymatic assay, concentrations below 30 μM for ECG/EGCG): did not inhibit the Type 2 isozyme; inhibition at 30 µM [8]: < 10%; inhibition at 100 µM [8]: 73%
CCCCC/C=C\C/C=C\C/C=C\CCCCC(=O)O [γ-Linolenic acid, γ-linolenic acid] | 31% | 52% | 89% | 99% | 20% | 54% | 65% | 79% | 85% | 22% | 49% | 63% | 72% | 88% | can inhibit the conversion of testosterone to 5α-DHT | 10 to 35% | appeared to be as healthy as rats in other groups | 30% | 48% | 60% | inhibition of NADPH-dependent [^3 H]4-MA binding [9]: to the same degree as in experiments with rat liver microsomes; competition with testosterone or NADPH (microsomal 5α-reductase): did not appear to compete with testosterone or NADPH; Km (microsomal 5α-reductase; 5 μM γ-LA, 2.0 without, read-out: apparent Km value for NADPH): 3.1 µM; Vmax (microsomal 5α-reductase; 5 μM γ-LA, 7.5 without): 2.8 pmol 5α-DHT formed/mg protein/15 min; Km (microsomal 5α-reductase; read-out: apparent Km value for testosterone, 5 μM γ-LA, 2.4 without): 4.5 µM; extent of inhibition by 10 μM γ-LA [10]: 93% and 52% and 88%; inhibition before removal of free γ-LA [10]: 78%; maximal binding of [^3 H]4-MA [10]: 0.45 pmol/10 μg protein and 0.40 pmol/10 μg protein; onset of inhibition [10]: within a minute; inhibition after microsomes reisolated to remove free γ-LA ([10]; reversibility test): 63%; IC50 ([6]; Homo sapiens, LNCaP, read-out: IC50 with the prostate cancer cells): 10 ± 5 µM; effect on body weight increase ([7]; 5 mg ip daily, 14 days): not EC or γ-LA; inhibition at 30 µM [8]: 88%; inhibition at 100 µM [8]: 99%
